In publication PMC8309014, “Lactose-Gated Mesoporous Silica Particles for Intestinal Controlled Delivery of Essential Oil Components: An In Vitro and In Vivo Study” (Pharmaceutics, 2021):

Tests used:
[1] = in vivo; conditions: male, Wistar, rat, po
Protocol: The EOC concentration in the aliquots of each specific section ((i) cargo release experiments, Section 2.6; (ii) EOCs permeability across the intestinal barriers, Section 2.13; and (iii) in vivo pharmacokinetic assays, Section 2.17) was analyzed by HPLC. For Thy and Eug molecules, the mobile phase used was ACN:H2O 50:50 v/v with 0.05% of TFA and absorbance detector using λex = 280 nm. For Cin, the mobile phase was ACN:H2O 85:15 v/v with 0.05% of TFA and λex = 254 nm. […] of volume injection were used and a flow of 1 mL/min was fixed. The methods were previously validated with adequate linearity, precision and accuracy (R > 0.99 and coefficient of variation < 5%).
In vivo experiments with M41-Cin-L in a Wistar rat model were carried out in order to study the concentration of cinnamaldehyde, free and encapsulated, in plasma and in the different gastrointestinal sections. The animal study was approved by the Scientific Committee of the Faculty of Pharmacy Universidad Miguel Hernández, Elche (project reference DI-MBS-02-15) and followed the guidelines described in the EC Directive 86/609, the Council of the Europe Convention ETS 123 and Spanish national laws governing the use of animals in research (Real Decreto 223/1988, BOE 67, 18-3-98:8509-8511). […] The concentration of Cin in each sample was determined by HPLC following the methodology described in Section 2.7.

[2] = tested on: MCP-1; test: Inflammatory response measurement: MCP-1 release in apical media; format: cell-based, Human; conditions: 24 h, EOC 200 μM free or in M41-EOC-L; LPS 10 μg/mL positive control
Protocol: The Caco-2 cell epithelia were incubated in cell culture medium with each treatment, free EOCs (200 μM) and […] solids (concentration of particles corresponding to a 200 μM EOC-payload), during the time required to perform the assay: 90 min for EOCs permeability (see Section 2.13) and 24 h for the other interaction studies (Lucifer yellow, Section 2.14, and inflammatory response measurement, Section 2.15). In addition, some cell inserts were incubated with free medium at the same conditions as negative controls. TEER measurements were performed before and after each treatment to ascertain the validity of the membranes before the assay and to know the treatment's effect on them. Inflammatory cytokine and chemokine release (IL-8, MCP-1) was measured in the apical media from the enterocyte layers after 24 h of treatment with the corresponding […]-EOC-L and free EOCs. For the measurement, a Bio-Plex 1 MAGPIX TM Multiplex Reader (Bio-Rad) was employed according to the manufacturer-described-procedure. The cells were stimulated with 10 μg/mL LPS as positive control.

Structure (SMILES)	Tmax [1] [h]	half-life [1] [h]	MCP-1 levels in the apical compartment [2]
O=C/C=C/c1ccccc1 [Cin, cinnamaldehyde]	0.75	1.36	–
C=CCc1ccc(O)c(OC)c1 [Eug, eugenol]	–	–	increases its levels
